Structures can show the parent of a compound that is named as a salt. Where two headings read alike, the source gives them in different places.
System: XBP1s-luc 293 LUC
Experiment: cellular PD assay, XBP1s-LUC reporter (Example 903)
Type: cell-based
Conditions: read-out: XBP1s-luc 293 LUC (IC50)
Protocol: Inhibition of IRE1α RNase activity was determined in an enzyme assay that measured cleavage of the XBP1 stem loop by autophosphorylated IRE1α. This assay format was chosen to ensure that inhibitors of either the IRE1α kinase or the RNase domains would be identified. Binding to the ATP pocket and inhibition of IRE1α kinase activity are not necessarily required to inhibit the RNase activity. Compounds were also profiled in cellular assays by direct measurement of XBP s (B-DNA assay) or by quantification of the luciferase signal in HT1080 XBP1-Luc, which carries a luciferase fusion that is only in frame and expressed from the spliced XBP1 transcript.
Biological activity of Formula I or I′ compounds was measured by an IRE1 biochemical binding assay (Example 901), a biochemical RNase assay (Example 902), a cellular PD assay, XBP1s-LUC reporter (Example 903), and an IRE1α-based inhibition of multiple myeloma (MM) cell proliferation assay.
All of the exemplary Formula I or I′ compounds in Tables 1 and 2 were made and characterized by LCMS [M+H]^+ (liquid chromatography mass spectroscopy) with detection of parent ion. All of the exemplary Formula I compounds in Tables 1 and 2 were prepared according to the procedures of the Schemes, General Procedures, and Examples. All of the exemplary Formula I or I′ compounds in Tables 1 and 2 were tested for binding to IRE1 (inositol requiring enzyme 1 alpha) and biological activity according to the assays and protocols of Example 901-903. Exemplary Formula I or I′ compounds in Tables 1 and 2 have the following structures, corresponding IUPAC names (ChemBioDraw, Version 12.0.2, CambridgeSoft Corp., Cambridge Mass.), and biological activity. Where more than one name is associated with a Formula I or I′ compound or intermediate in Tables 1 and 2 and the Experimental Procedures, the chemical structure shall define the compound. Assignment of configuration at chiral centers in separated stereoisomers may be tentative, and depicted in Tables 1 and 2 structures for illustrative purposes, before stereochemistry is definitively established, such as from x-ray crystallographic data. In some cases, stereoisomers are separated and tested for biological activity before the stereochemistry of the separated stereoisomers is determined; and stereochemistry in some instances was inferred based on structure-activity relationship (SAR) knowledge from previous compounds. In some cases, the compounds are tested as racemic or diastereomeric mixtures. Where more than one potency value is entered on a row, separated stereoisomers represented by the structure and name on that row were tested. Exemplary compounds of Formula I or I′ in Table 3 can be prepared using methods known in the art or according to procedures similar to those described in the Schemes, General Procedures, and Examples 101-500. Biological activities of compounds in Table 3 can be tested in biological assays, for example, those in Examples 901, 902 and 903 described herein.

Compound	IC50 (Table 1) [nM]	IC50 (Table 2) [nM]
Cc1ccc2c(NCC(O)C(C)C)cccc2c1Oc1ncccc1-c1ccnc(N[C@H]2CCCNC2)n1 (mixture of isomers) [Example 200, 3-Methyl-1-((6-methyl-5-((3-(2-((S)-piperidin-3-ylamino)pyrimidin-4-yl)pyridin-2-yl)oxy)naphthalen-1-yl)amino)butan-2-ol]	77	–
Cc1ccc2c(N3C(=O)CCC3C)cccc2c1Oc1ncccc1-c1ccnc(N[C@H]2CCCNC2)n1 (mixture of isomers) [Example 237, 5-Methyl-1-(6-methyl-5-((3-(2-((S)-piperidin-3-ylamino)pyrimidin-4-yl)pyridin-2-yl)oxy)naphthalen-1-yl)pyrrolidin-2-one]	472	–
Cc1ccc2c(N3CCC(C)S3(=O)=O)cccc2c1Oc1ncccc1-c1ccnc(N[C@H]2CCCNC2)n1 (mixture of isomers) [Example 245, 5-Methyl-2-(6-methyl-5-((3-(2-((S)-piperidin-3-ylamino)pyrimidin-4-yl)pyridin-2-yl)oxy)naphthalen-1-yl)isothiazolidine 1,1-dioxide]	294	–
Cc1ccc2c(NC(=O)C3CC34CCCCC4)cccc2c1Oc1ncccc1-c1ccnc(N[C@H]2CCCNC2)n1 (mixture of isomers) [Example 281, N-(6-Methyl-5-((3-(2-(((S)-piperidin-3-yl)amino)pyrimidin-4-yl)pyridin-2-yl)oxy)naphthalen-1-yl)spiro[2.5]octane-1-carboxamide]	89	–
Cc1ccc2c(NC(=O)C3CC34CCOC4)cccc2c1Oc1ncccc1-c1ccnc(N[C@H]2CCCNC2)n1 (mixture of isomers) [Example 289, N-(6-Methyl-5-((3-(2-(((S)-piperidin-3-yl)amino)pyrimidin-4-yl)pyridin-2-yl)oxy)naphthalen-1-yl)-5-oxaspiro[2.4]heptane-1-carboxamide]	431	–
Cc1ccc2c(N3CCCC(C)C3=O)cccc2c1Oc1ncccc1-c1ccnc(N[C@H]2CCCNC2)n1 (mixture of isomers) [Example 354, 3-Methyl-1-(6-methyl-5-((3-(2-((S)-piperidin-3-ylamino)pyrimidin-4-yl)pyridin-2-yl)oxy)naphthalen-1-yl)piperidin-2-one]	318	–
Cc1ccc2c(NC3CCCC3O)cccc2c1Oc1ncccc1-c1ccnc(N[C@H]2CCCNC2)n1 (mixture of isomers) [Example 383, anti-2-((6-Methyl-5-((3-(2-((S)-piperidin-3-ylamino)pyrimidin-4-yl)pyridin-2-yl)oxy)naphthalen-1-yl)amino)cyclopentanol]	231	–
Cc1ccc2c(NCCC(C)O)cccc2c1Oc1ncccc1-c1ccnc(N[C@H]2CCCNC2)n1 (mixture of isomers) [Example 390, 4-((6-Methyl-5-((3-(2-((S)-piperidin-3-ylamino)pyrimidin-4-yl)pyridin-2-yl)oxy)naphthalen-1-yl)amino)butan-2-ol]	143	–
CCC(C)CS(=O)(=O)Nc1c(F)ccc2c(Oc3ncccc3-c3ccnc(N[C@H]4CCCNC4)n3)c(C)ccc12 (mixture of isomers) [Example 409, N-(2-Fluoro-6-methyl-5-((3-(2-(((S)-piperidin-3-yl)amino)pyrimidin-4-yl)pyridin-2-yl)oxy)naphthalen-1-yl)-2-methylbutane-1-sulfonamide]	–	25
Cc1ccc2c(NCC(F)CF)cccc2c1Oc1ncccc1-c1ccnc(N[C@H]2CCCNC2)n1 (mixture of isomers) [Example 460, 4-[2-[[5-(2,3-Difluoropropylamino)-2-methyl-1-naphthyl]oxy]-3-pyridyl]-N-[(3S)-3-piperidyl]pyrimidin-2-amine hydrochloride]	–	92
Cc1ccc2c(NS(=O)(=O)CC3CC3(F)F)c(F)ccc2c1Oc1ncccc1-c1ccnc(N[C@H]2CCCNC2)n1 (mixture of isomers) [Example 467, 1-(2,2-Difluorocyclopropyl)-N-(2-fluoro-6-methyl-5-((3-(2-((S)-piperidin-3-ylamino)pyrimidin-4-yl)pyridin-2-yl)oxy)naphthalen-1-yl)methanesulfonamide hydrochloride]	–	42
CCC(C)S(=O)(=O)Nc1cccc2c(Oc3ncccc3-c3ccnc(N[C@H]4CCCNC4)n3)c(C)ccc12 (mixture of isomers) [Example 134, N-(6-Methyl-5-((3-(2-((S)-piperidin-3-ylamino)pyrimidin-4-yl)pyridin-2-yl)oxy)naphthalen-1-yl) butane-2-sulfonamide]	260	–
Cc1ccc2c(NCC3CC3(F)F)cccc2c1Oc1ncccc1-c1ccnc(N[C@H]2CCCNC2)n1 (mixture of isomers) [Example 341, 4-(2-((5-(((2,2-Difluorocyclopropyl)methyl)amino)-2-methylnaphthalen-1-yl)oxy)pyridin-3-yl)-N—((S)-piperidin-3-yl)pyrimidin-2-amine]	118	–
Cc1ccc2c(NC(=O)[C@@H]3C[C@@H]3F)cccc2c1Oc1ncccc1-c1ccnc(N[C@H]2CCCNC2)n1 (relative stereo) [Example 212, (1S,2S)-2-Fluoro-N-[6-methyl-5-[[3-[2-[[(3S)-3-piperidyl]amino]pyrimidin-4-yl]-2-pyridyl]oxy]-1-naphthyl]cyclopropanecarboxamide]	122	–
CCCS(=O)(=O)Nc1cccc2c(Oc3ncccc3-c3ccnc(N[C@@H]4CNCC[C@H]4C)n3)c(C)ccc12 (single isomer, unassigned) [Example 169]	121	–
Cc1ccc2c(NC(=O)[C@H]3CC3(F)F)cccc2c1Oc1ncccc1-c1ccnc(N[C@H]2CCCNC2)n1 (single isomer, unassigned) [Example 179]	76	–
Cc1ccc2c(NC(=O)[C@@H]3CC3(F)F)cccc2c1Oc1ncccc1-c1ccnc(N[C@H]2CCCNC2)n1 (single isomer, unassigned) [Example 180]	213	–
CCCS(=O)(=O)Nc1cccc2c(Oc3ncccc3-c3ccnc(N[C@H]4CC[C@H](C)NC4)n3)c(C)ccc12 (single isomer, unassigned) [Example 196]	162	–
Cc1ccc2c(NCC[C@@H](C)O)cccc2c1Oc1ncccc1-c1ccnc(N[C@H]2CCCNC2)n1 (single isomer, unassigned) [Example 201]	133	–
Cc1ccc2c(NCC[C@H](C)O)cccc2c1Oc1ncccc1-c1ccnc(N[C@H]2CCCNC2)n1 (single isomer, unassigned) [Example 202]	123	–
CO[C@H]1CNC[C@@H](Nc2nccc(-c3cccnc3Oc3c(C)ccc4c(NS(=O)(=O)Cc5ccc(Cl)cc5)cccc34)n2)C1 (single isomer, unassigned) [Example 205]	130	–
CCCS(=O)(=O)Nc1cccc2c(Oc3ncccc3-c3ccnc(N[C@@H]4CNCC[C@H]4F)n3)c(C)ccc12 (single isomer, unassigned) [Example 206]	487	–
Cc1ccc2c(NS(=O)(=O)CC(C)C)c(F)ccc2c1Oc1ncccc1-c1ccnc(N[C@@H]2CNC[C@@H](F)C2)n1 (single isomer, unassigned) [Example 208]	18.2	–
Cc1ccc2c(NS(=O)(=O)[C@@H](C)c3ccccc3)cccc2c1Oc1ncccc1-c1ccnc(N[C@H]2CCCNC2)n1 (single isomer, unassigned) [Example 214]	76	–
Cc1ccc2c(NC(=O)[C@H]3CC34CC4)cccc2c1Oc1ncccc1-c1ccnc(N[C@H]2CCCNC2)n1 (single isomer, unassigned) [Example 217]	55	–
Cc1ccc2c(NC(=O)[C@@H]3CC34CC4)cccc2c1Oc1ncccc1-c1ccnc(N[C@H]2CCCNC2)n1 (single isomer, unassigned) [Example 218]	174	–
Cc1ccc2c(NC(=O)[C@@H]3C[C@@]3(F)c3ccccc3)cccc2c1Oc1ncccc1-c1ccnc(N[C@H]2CCCNC2)n1 (single isomer, unassigned) [Example 226]	223	–
Cc1ccc2c(NC(=O)C3CC3C(F)(F)F)cccc2c1Oc1ncccc1-c1ccnc(N[C@H]2CCCNC2)n1 (single isomer, unassigned) [Example 227]	493	–
Cc1ccc2c(NC(=O)C3CC3C(F)(F)F)cccc2c1Oc1ncccc1-c1ccnc(N[C@H]2CCCNC2)n1 (single isomer, unassigned) [Example 228]	88	–
Cc1ccc2c(NC(=O)C3CC3C(C)C)cccc2c1Oc1ncccc1-c1ccnc(N[C@H]2CCCNC2)n1 (single isomer, unassigned) [Example 229]	454	–

Reference: patent publication US10968203B2, “Pyrimidinyl-pyridyloxy-naphthyl compounds and methods of treating IRE1-related diseases and disorders” (Genentech, Inc., priority 2017, dated 2021)
